Target: T1, Bbreβgal-III (Bifidobacterium breve, UniProt D4BMY8)
T1 construct: gene BIFBRE_03435; pET21a(+) NdeI/NotI, His-tagged, E. coli BL21 Star (DE3), IMAC purified
Assay: o-nitrophenol release at […] nm, nonlinear fit with substrate inhibition model
Type: biochemical
Details: substrate inhibition constant; 50 mM sodium phosphate pH 6.5, 30 °C

T1 sequence (D4BMY8 1-691): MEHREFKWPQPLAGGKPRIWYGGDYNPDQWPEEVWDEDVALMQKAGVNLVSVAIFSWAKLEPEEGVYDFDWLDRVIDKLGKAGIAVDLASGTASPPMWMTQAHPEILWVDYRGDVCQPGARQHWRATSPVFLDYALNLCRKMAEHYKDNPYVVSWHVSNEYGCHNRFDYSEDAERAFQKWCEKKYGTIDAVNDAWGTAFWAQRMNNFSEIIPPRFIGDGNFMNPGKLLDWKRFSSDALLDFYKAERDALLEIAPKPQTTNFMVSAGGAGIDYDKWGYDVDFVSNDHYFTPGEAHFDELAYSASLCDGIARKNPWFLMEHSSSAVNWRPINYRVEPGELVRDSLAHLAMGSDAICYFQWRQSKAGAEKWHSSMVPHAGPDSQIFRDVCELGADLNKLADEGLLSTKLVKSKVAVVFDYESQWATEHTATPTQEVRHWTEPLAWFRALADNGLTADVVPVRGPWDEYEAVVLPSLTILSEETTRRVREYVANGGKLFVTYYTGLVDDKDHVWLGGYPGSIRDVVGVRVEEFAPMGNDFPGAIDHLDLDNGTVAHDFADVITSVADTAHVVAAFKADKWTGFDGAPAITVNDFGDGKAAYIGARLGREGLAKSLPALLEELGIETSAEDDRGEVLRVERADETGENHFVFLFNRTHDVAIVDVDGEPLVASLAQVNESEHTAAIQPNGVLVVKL

- k i,S: 13.84 ± 1.57 mM
Compound: O=[N+]([O-])c1ccccc1O[C@@H]1O[C@H](CO)[C@H](O)[C@H](O)[C@H]1O [o-nitrophenyl-β-D-galactopyranoside]
